This passage reports % of control and % binding results from ChEMBL document CHEMBL5465560, “Selectivity Literature for EUbOPEN Chemogenomic Library” (2024).

Assay [1] addresses T1, Phosphatidylinositol 5-phosphate 4-kinase type-2 gamma (Homo sapiens) (UniProt Q8TBX8).
T1 sequence (whole entry): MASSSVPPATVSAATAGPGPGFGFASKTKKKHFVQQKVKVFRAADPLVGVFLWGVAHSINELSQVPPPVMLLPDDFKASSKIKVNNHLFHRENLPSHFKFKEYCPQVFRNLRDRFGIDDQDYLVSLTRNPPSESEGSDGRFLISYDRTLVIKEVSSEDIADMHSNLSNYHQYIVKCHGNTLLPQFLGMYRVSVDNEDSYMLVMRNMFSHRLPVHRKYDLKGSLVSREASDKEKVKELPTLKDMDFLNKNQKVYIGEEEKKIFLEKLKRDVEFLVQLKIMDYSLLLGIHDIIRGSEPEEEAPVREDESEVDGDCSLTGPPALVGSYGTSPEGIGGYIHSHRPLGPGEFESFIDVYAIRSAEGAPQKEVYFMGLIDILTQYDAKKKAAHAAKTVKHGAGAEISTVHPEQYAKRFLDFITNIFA
As to conditions: at 10 µM.

A further assay deals with Focal adhesion kinase 1 (Homo sapiens, UniProt Q05397). As to the kind of experiment: Selectivity interaction (KinomeScan (DiscoverX)) EUB0000229b PTK2. As to conditions: at 10 µM.
Chain of Focal adhesion kinase 1 (Q05397 2-1052 limits assumed): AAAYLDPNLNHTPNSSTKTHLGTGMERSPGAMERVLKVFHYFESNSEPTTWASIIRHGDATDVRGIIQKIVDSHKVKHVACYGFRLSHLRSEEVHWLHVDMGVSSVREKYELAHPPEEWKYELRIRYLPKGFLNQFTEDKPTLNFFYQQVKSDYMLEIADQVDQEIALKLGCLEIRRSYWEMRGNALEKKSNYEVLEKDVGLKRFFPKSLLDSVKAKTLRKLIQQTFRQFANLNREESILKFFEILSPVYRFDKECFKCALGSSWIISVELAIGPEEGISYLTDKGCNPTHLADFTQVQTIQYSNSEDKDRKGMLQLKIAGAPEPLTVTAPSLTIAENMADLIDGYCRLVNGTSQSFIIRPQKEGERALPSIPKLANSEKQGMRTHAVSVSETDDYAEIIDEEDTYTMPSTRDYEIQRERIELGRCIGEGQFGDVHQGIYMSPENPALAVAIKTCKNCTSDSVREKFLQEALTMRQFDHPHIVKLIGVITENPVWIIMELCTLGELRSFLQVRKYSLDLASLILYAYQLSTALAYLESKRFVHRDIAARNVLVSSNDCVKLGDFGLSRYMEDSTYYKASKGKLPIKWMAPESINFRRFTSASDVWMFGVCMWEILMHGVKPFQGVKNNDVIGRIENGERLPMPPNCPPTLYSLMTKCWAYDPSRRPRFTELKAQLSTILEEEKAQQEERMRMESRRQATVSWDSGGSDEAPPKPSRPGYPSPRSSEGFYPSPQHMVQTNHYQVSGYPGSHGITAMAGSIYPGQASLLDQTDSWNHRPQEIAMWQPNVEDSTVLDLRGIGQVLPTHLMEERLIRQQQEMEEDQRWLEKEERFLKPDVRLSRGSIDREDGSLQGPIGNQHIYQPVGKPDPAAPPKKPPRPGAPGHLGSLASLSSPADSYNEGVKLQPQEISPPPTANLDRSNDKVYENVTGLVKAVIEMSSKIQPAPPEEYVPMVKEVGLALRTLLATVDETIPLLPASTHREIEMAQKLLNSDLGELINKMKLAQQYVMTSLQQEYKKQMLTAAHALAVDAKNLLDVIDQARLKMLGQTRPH
The target in assay [2] is Tyrosine-protein kinase CSK (Homo sapiens) (UniProt P41240). The assay is described as follows: Selectivity interaction (KinomeScan (DiscoverX)) EUB0000655a CSK. As to conditions: at 10 µM.
Chain of Tyrosine-protein kinase CSK (Homo sapiens) (P41240 2-450 limits assumed): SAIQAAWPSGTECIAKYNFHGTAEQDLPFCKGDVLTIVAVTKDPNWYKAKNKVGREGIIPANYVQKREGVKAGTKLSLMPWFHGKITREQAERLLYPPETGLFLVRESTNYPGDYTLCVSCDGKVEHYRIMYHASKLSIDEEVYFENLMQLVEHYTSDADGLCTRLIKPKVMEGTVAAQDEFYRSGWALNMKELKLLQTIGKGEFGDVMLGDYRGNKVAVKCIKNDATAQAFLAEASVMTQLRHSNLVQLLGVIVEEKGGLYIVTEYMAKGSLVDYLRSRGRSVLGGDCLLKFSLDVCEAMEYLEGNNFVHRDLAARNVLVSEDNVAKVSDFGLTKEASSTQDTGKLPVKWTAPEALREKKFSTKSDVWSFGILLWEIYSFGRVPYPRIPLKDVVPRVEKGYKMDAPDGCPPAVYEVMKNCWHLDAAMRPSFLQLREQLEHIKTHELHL
Assay [3] concerns Mast/stem cell growth factor receptor Kit (Homo sapiens), P10721 [A829P]. The assay is described as follows: (§1) Selectivity interaction (KinomeScan (DiscoverX)) EUB0001079a KIT. As to conditions: at 1 µM.
Chain of Mast/stem cell growth factor receptor Kit (Homo sapiens), P10721 [A829P] (P10721 whole entry A829P): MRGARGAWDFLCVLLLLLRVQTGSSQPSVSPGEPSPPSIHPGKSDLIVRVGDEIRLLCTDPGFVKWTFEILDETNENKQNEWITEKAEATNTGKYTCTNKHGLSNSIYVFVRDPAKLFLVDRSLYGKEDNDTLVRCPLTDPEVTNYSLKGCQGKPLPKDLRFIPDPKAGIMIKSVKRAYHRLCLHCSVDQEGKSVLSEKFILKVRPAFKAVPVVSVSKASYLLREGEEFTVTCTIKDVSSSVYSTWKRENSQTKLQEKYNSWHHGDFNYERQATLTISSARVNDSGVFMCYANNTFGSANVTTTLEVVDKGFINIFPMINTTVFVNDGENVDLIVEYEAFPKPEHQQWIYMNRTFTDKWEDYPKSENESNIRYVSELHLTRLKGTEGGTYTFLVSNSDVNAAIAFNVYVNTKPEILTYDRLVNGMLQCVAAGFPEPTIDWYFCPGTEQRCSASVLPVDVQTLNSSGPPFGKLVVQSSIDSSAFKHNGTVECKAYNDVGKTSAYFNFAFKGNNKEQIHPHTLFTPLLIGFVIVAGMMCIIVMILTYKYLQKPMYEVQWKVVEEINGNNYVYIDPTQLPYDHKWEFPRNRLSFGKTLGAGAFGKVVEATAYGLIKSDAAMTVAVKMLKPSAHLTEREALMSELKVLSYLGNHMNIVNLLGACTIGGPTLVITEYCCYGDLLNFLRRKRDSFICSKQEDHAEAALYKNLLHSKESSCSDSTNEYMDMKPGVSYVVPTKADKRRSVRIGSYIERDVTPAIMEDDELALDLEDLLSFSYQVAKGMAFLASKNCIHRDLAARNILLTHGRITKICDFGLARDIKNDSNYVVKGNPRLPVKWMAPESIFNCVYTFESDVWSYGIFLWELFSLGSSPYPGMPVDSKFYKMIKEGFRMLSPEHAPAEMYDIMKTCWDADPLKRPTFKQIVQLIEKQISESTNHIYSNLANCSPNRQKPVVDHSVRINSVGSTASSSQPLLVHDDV
The test system of assay [4] is Mast/stem cell growth factor receptor Kit (Homo sapiens), P10721 [D816H]. The description is as §1. As to conditions: at 1 µM.
Chain of Mast/stem cell growth factor receptor Kit (Homo sapiens), P10721 [D816H] (P10721 whole entry D816H): as the sequence (P10721 whole entry A829P) above, with D816H, P829A counted along it
Assay [5] relates to Mast/stem cell growth factor receptor Kit (Homo sapiens), P10721 [D816V]. Described as §1. The settings on record: at 1 µM.
Chain of Mast/stem cell growth factor receptor Kit (Homo sapiens), P10721 [D816V] (P10721 whole entry D816V): as the sequence (P10721 whole entry A829P) above, with D816V, P829A counted along it
The subject of assay [6] is Mast/stem cell growth factor receptor Kit (Homo sapiens), P10721 [L576P]. The assay is described as §1. As to conditions: at 1 µM.
Assay [7] deals with Mast/stem cell growth factor receptor Kit (Homo sapiens), P10721 [V559D,T670I]. The description is as §1. The settings on record: at 1 µM.
Chain of Mast/stem cell growth factor receptor Kit (Homo sapiens), P10721 [V559D,T670I] (P10721 whole entry V559D/T670I): as the sequence (P10721 whole entry A829P) above, with V559D, T670I, P829A counted along it
Assay [8] concerns Mast/stem cell growth factor receptor Kit (Homo sapiens), P10721 [V559D,V654A]. The description is as §1. As to conditions: at 1 µM.
Chain of Mast/stem cell growth factor receptor Kit (Homo sapiens), P10721 [V559D,V654A] (P10721 whole entry V559D/V654A): as the sequence (P10721 whole entry A829P) above, with V559D, V654A, P829A counted along it
Assay [9] relates to Mast/stem cell growth factor receptor Kit (Homo sapiens), P10721 [V559D]. The assay is described as §1. As to conditions: at 1 µM.
Chain of Mast/stem cell growth factor receptor Kit (Homo sapiens), P10721 [V559D] (P10721 whole entry V559D): as the sequence (P10721 whole entry A829P) above, with V559D, P829A counted along it
Assay [10] deals with Mast/stem cell growth factor receptor Kit (Homo sapiens, UniProt P10721). Described as §1. As to conditions: at 1 µM.
Chain of Mast/stem cell growth factor receptor Kit (P10721 whole entry): as the sequence (P10721 whole entry A829P) above, with P829A counted along it
For assay [11], the target named is T2, Activin receptor type-1 (Homo sapiens) (UniProt Q04771).
T2 sequence (whole entry): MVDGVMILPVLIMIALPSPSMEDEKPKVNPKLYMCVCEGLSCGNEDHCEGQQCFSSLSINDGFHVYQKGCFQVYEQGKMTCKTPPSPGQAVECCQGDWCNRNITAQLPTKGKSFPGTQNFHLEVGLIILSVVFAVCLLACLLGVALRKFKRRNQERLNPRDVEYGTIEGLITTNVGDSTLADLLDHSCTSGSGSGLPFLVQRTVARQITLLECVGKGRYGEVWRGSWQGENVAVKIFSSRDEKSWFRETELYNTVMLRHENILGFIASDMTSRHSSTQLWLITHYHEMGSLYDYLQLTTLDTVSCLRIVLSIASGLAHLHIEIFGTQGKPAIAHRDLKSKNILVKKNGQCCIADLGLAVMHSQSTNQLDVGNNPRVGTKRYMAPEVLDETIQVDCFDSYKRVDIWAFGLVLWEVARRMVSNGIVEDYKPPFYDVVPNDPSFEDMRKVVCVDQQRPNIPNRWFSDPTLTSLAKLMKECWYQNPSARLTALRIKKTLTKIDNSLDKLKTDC
The assay is described as follows: Selectivity interaction (KinomeScan (DiscoverX)) EUB0001049a ACVR1. As to conditions: at 1 µM.

The target in assay [12] is T3, Tyrosine-protein kinase JAK3 (Homo sapiens) (UniProt P52333).
T3 sequence (whole entry): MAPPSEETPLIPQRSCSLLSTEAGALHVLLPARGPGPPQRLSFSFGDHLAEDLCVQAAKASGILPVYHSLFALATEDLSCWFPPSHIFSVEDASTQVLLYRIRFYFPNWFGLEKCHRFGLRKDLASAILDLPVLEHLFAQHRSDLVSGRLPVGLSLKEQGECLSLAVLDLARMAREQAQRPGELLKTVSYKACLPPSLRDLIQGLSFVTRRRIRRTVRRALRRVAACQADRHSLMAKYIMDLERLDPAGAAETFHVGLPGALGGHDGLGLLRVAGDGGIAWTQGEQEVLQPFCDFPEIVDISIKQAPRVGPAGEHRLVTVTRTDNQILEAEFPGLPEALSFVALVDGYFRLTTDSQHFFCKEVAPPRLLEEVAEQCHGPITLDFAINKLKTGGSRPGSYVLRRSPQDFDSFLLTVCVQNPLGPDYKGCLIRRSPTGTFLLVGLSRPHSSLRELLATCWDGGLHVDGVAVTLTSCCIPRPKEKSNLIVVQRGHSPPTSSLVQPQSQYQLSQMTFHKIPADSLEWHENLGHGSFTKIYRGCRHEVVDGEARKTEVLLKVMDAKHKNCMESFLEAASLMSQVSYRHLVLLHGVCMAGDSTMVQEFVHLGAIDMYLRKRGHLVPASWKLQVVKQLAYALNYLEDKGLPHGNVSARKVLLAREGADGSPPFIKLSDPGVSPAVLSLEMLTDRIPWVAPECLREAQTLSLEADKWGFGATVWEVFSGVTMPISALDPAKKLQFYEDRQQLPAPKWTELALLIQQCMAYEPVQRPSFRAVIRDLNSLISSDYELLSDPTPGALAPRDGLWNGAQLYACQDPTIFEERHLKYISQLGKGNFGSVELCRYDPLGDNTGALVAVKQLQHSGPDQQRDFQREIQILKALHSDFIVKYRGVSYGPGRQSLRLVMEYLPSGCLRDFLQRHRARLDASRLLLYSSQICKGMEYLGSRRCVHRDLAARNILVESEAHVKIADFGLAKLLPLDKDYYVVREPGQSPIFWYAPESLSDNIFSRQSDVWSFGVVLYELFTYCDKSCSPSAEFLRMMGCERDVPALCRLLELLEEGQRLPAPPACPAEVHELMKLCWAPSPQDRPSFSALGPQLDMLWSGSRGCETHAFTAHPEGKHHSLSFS
As to the kind of experiment: Selectivity interaction (KinomeScan (DiscoverX)) EUB0000092b JAK3. The settings on record: at 10 µM.

Assay [13] deals with Cyclin-dependent kinase 16 (Homo sapiens) (UniProt Q00536). The settings on record: at 10 µM.
Chain of Cyclin-dependent kinase 16 (Homo sapiens) (Q00536 whole entry): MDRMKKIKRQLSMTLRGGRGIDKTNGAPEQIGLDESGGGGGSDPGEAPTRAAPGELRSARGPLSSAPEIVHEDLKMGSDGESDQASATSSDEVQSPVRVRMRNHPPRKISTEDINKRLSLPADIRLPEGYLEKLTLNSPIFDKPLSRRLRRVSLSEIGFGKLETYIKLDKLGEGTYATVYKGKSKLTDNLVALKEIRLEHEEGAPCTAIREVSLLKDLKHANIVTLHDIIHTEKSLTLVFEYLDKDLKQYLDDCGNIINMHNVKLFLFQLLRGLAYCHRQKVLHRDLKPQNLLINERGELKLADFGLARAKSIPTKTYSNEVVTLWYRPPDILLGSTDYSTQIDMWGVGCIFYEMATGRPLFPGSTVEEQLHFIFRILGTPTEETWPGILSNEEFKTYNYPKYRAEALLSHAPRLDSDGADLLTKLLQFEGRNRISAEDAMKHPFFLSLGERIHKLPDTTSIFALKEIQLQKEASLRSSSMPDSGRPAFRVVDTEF

Chain of Mast/stem cell growth factor receptor Kit (Homo sapiens), P10721 [L576P] (P10721 whole entry L576P): as the sequence (P10721 whole entry A829P) above, with L576P, P829A counted along it

In assay [1], `Cc1cc([C@@H](C)Nc2ccccc2C(=O)O)c2nc(N3CCOCC3)cc(=O)n2c1` [AZD-6482] showed a % of control of 58%.

On to `COc1cc(N(C)c2ccnc3ccc(C(F)(F)F)cc23)cc(OC)c1OC`, for which the % binding at Focal adhesion kinase 1 was 100%.

As to `CN(C)CCOc1ccc(-c2nc(-c3ccncc3)c(-c3ccc4c(c3)CC/C4=N\O)[nH]2)cc1`, in assay [2], the % of control is 97%.

Turning to `Nc1cnc(N2CCc3cc(S(=O)(=O)Nc4c(F)cc(Cl)cc4F)cc(N4CCCC4=O)c32)nc1` [TP-020n], the % of control in assay [3] was determined as 100%; in assay [4], 100%; in assay [5], 100%; in assay [6] it was 83%; in assay [7], 100%; in [8] it was 100%. For the same molecule, the % of control in assay [9] and in [10] was 100% in each case.

`COc1cc(Nc2nc(C)cc(-c3cnn4nc(OC)ccc34)n2)cc(C(F)(F)F)c1` gave a % of control in assay [11] of 78%.

`CCC(=O)N1CCN(c2ccc(-n3c(=O)ccc4cnc5ccc(-c6cnc7ccccc7c6)cc5c43)cc2C(F)(F)F)CC1` showed a % of control in [12] of 100%.

`COCC(=O)NC/C=C/c1ccc2ncnc(Nc3ccc(Oc4ccc(C)nc4)c(C)c3)c2c1` [CP-724714] displayed a % of control in assay [13] of 74%.
